This note sets out measurements from patent US12643859B2, “Pyridyl oxycarboxylic acid oxime derivative and preparation method therefor, weeding composition and application thereof” (Qingdao Kingagroot Chemical Compound Co., Ltd., priority 2018, dated 2026).

In the first test the test system is Monocotyledonous and dicotyledonous weed seeds and main crop seeds. Put plainly: Post-emergence test experiment (Table 3, 1000 g a.i./ha). Format: in vivo. The settings on record: Digitaria sanguinalis, 3 weeks in greenhouse, fresh weight inhibition. How it is done: The above described growth inhibition rate is fresh weight inhibition rate.
Post-emergence test experiment: Monocotyledonous and dicotyledonous weed seeds and main crop seeds (i. e. wheat, corn, rice, soybean, cotton, oilseed, millet and sorghum.) were put into a plastic pot loaded with soil. Then covered with 0.5-2 cm soil, the seeds were allowed to grow in good greenhouse environment. The test plants were treated at 2-3 leaf stage 2 weeks after sowing. The test compounds of the invention were dissolved with acetone respectively, then added with tween-80, and using 1.5 liters per hectare of an emulsible concentrate of methyl oleate as a synergist, and diluted by certain amount of water to certain concentration. The solution was sprayed to the plants with a sprayer. Then the plants were cultured for 3 weeks in the greenhouse, and the experiment result of weed controlling effect was listed in tables 3-4.
For `CCc1cccc(C(Cl)=NOC(=O)C(C)Oc2nc(F)c(Cl)c(N)c2Cl)c1` (stereo not drawn) [Compound 85], the “Activity level (growth inhibition rate) Digitaria sanguinalis” value was 5 (Level 5: the growth inhibition rate is greater than 85%).

On to `CC(Oc1nc(F)c(Cl)c(N)c1Cl)C(=O)ON=Cc1cccc([N+](=O)[O-])c1` (stereo not drawn) [Compound 73], for which the “Activity level (growth inhibition rate) Digitaria sanguinalis” value is 5 (Level 5: the growth inhibition rate is greater than 85%).

As for `CC(Oc1nc(F)c(Cl)c(N)c1Cl)C(=O)ON=C(C(=O)NCCc1ccccc1)c1ccccc1` (stereo not drawn) [Compound 105], the “Activity level (growth inhibition rate) Digitaria sanguinalis” value is 5 (Level 5: the growth inhibition rate is greater than 85%).

Turning to `CC(Oc1nc(F)c(Cl)c(N)c1Cl)C(=O)ON=C(c1ccccc1)c1ccc(C2CC2)cc1` (stereo not drawn) [Compound 80], the “Activity level (growth inhibition rate) Digitaria sanguinalis” value is given as 5 (Level 5: the growth inhibition rate is greater than 85%).

On to `CC(Oc1nc(F)c(Cl)c(N)c1Cl)C(=O)ON=C(C(=O)N(C)C)c1ccccc1` (stereo not drawn) [Compound 99], for which the “Activity level (growth inhibition rate) Digitaria sanguinalis” value was 5 (Level 5: the growth inhibition rate is greater than 85%).

For the molecule `CSC(=NOC(=O)C(C)Oc1nc(F)c(Cl)c(N)c1Cl)c1ccc(SC)cc1` (stereo not drawn) [Compound 89], the “Activity level (growth inhibition rate) Digitaria sanguinalis” value is given as 5 (Level 5: the growth inhibition rate is greater than 85%).

The same test, now with this note: Echinochloa crusgalli, 3 weeks in greenhouse, fresh weight inhibition.
As to `CCc1cccc(C(Cl)=NOC(=O)C(C)Oc2nc(F)c(Cl)c(N)c2Cl)c1` (stereo not drawn) [Compound 85], the “Activity level (growth inhibition rate) Echinochloa crusgalli” value was 5 (Level 5: the growth inhibition rate is greater than 85%).

For `CC(Oc1nc(F)c(Cl)c(N)c1Cl)C(=O)ON=Cc1cccc([N+](=O)[O-])c1` (stereo not drawn) [Compound 73], the “Activity level (growth inhibition rate) Echinochloa crusgalli” value is reported as 5 (Level 5: the growth inhibition rate is greater than 85%).

With `CC(Oc1nc(F)c(Cl)c(N)c1Cl)C(=O)ON=C(C(=O)NCCc1ccccc1)c1ccccc1` (stereo not drawn) [Compound 105], the “Activity level (growth inhibition rate) Echinochloa crusgalli” value is on record as 5 (Level 5: the growth inhibition rate is greater than 85%).

Turning to `CC(Oc1nc(F)c(Cl)c(N)c1Cl)C(=O)ON=C(c1ccccc1)c1ccc(C2CC2)cc1` (stereo not drawn) [Compound 80], the “Activity level (growth inhibition rate) Echinochloa crusgalli” value is 5 (Level 5: the growth inhibition rate is greater than 85%).

With `CC(Oc1nc(F)c(Cl)c(N)c1Cl)C(=O)ON=C(C(=O)N(C)C)c1ccccc1` (stereo not drawn) [Compound 99], the “Activity level (growth inhibition rate) Echinochloa crusgalli” value is listed as 5 (Level 5: the growth inhibition rate is greater than 85%).

For the molecule `CSC(=NOC(=O)C(C)Oc1nc(F)c(Cl)c(N)c1Cl)c1ccc(SC)cc1` (stereo not drawn) [Compound 89], the “Activity level (growth inhibition rate) Echinochloa crusgalli” value is reported as 5 (Level 5: the growth inhibition rate is greater than 85%).

Still in this test, the particulars now being: Galium spurium, 3 weeks in greenhouse, fresh weight inhibition.
Turning to `CCc1cccc(C(Cl)=NOC(=O)C(C)Oc2nc(F)c(Cl)c(N)c2Cl)c1` (stereo not drawn) [Compound 85], the “Activity level (growth inhibition rate) Galium spurium” value is listed as 5 (Level 5: the growth inhibition rate is greater than 85%).

Regarding `CC(Oc1nc(F)c(Cl)c(N)c1Cl)C(=O)ON=Cc1cccc([N+](=O)[O-])c1` (stereo not drawn) [Compound 73], the “Activity level (growth inhibition rate) Galium spurium” value is 5 (Level 5: the growth inhibition rate is greater than 85%).

Consider `CC(Oc1nc(F)c(Cl)c(N)c1Cl)C(=O)ON=C(C(=O)NCCc1ccccc1)c1ccccc1` (stereo not drawn) [Compound 105], for which the “Activity level (growth inhibition rate) Galium spurium” value was 5 (Level 5: the growth inhibition rate is greater than 85%).

For `CC(Oc1nc(F)c(Cl)c(N)c1Cl)C(=O)ON=C(c1ccccc1)c1ccc(C2CC2)cc1` (stereo not drawn) [Compound 80], the “Activity level (growth inhibition rate) Galium spurium” value is listed as 5 (Level 5: the growth inhibition rate is greater than 85%).

`CC(Oc1nc(F)c(Cl)c(N)c1Cl)C(=O)ON=C(C(=O)N(C)C)c1ccccc1` (stereo not drawn) [Compound 99]: the “Activity level (growth inhibition rate) Galium spurium” value is recorded as 5 (Level 5: the growth inhibition rate is greater than 85%).

In the case of `CSC(=NOC(=O)C(C)Oc1nc(F)c(Cl)c(N)c1Cl)c1ccc(SC)cc1` (stereo not drawn) [Compound 89], the “Activity level (growth inhibition rate) Galium spurium” value is 5 (Level 5: the growth inhibition rate is greater than 85%).

Staying with this test, now noted: Leptochloa chinensis, 3 weeks in greenhouse, fresh weight inhibition.
With `CCc1cccc(C(Cl)=NOC(=O)C(C)Oc2nc(F)c(Cl)c(N)c2Cl)c1` (stereo not drawn) [Compound 85], the “Activity level (growth inhibition rate) Leptochloa chinensis” value is 5 (Level 5: the growth inhibition rate is greater than 85%).

Turning to `CC(Oc1nc(F)c(Cl)c(N)c1Cl)C(=O)ON=Cc1cccc([N+](=O)[O-])c1` (stereo not drawn) [Compound 73], the “Activity level (growth inhibition rate) Leptochloa chinensis” value is 5 (Level 5: the growth inhibition rate is greater than 85%).

As to `CC(Oc1nc(F)c(Cl)c(N)c1Cl)C(=O)ON=C(C(=O)NCCc1ccccc1)c1ccccc1` (stereo not drawn) [Compound 105], the “Activity level (growth inhibition rate) Leptochloa chinensis” value was 5 (Level 5: the growth inhibition rate is greater than 85%).

With `CC(Oc1nc(F)c(Cl)c(N)c1Cl)C(=O)ON=C(c1ccccc1)c1ccc(C2CC2)cc1` (stereo not drawn) [Compound 80], the “Activity level (growth inhibition rate) Leptochloa chinensis” value is 5 (Level 5: the growth inhibition rate is greater than 85%).

Turning to `CC(Oc1nc(F)c(Cl)c(N)c1Cl)C(=O)ON=C(C(=O)N(C)C)c1ccccc1` (stereo not drawn) [Compound 99], the “Activity level (growth inhibition rate) Leptochloa chinensis” value is reported as 5 (Level 5: the growth inhibition rate is greater than 85%).

For the molecule `CSC(=NOC(=O)C(C)Oc1nc(F)c(Cl)c(N)c1Cl)c1ccc(SC)cc1` (stereo not drawn) [Compound 89], the “Activity level (growth inhibition rate) Leptochloa chinensis” value is 5 (Level 5: the growth inhibition rate is greater than 85%).

Still in this test, the particulars now being: Monochoria Vaginalis, 3 weeks in greenhouse, fresh weight inhibition.
With `CCc1cccc(C(Cl)=NOC(=O)C(C)Oc2nc(F)c(Cl)c(N)c2Cl)c1` (stereo not drawn) [Compound 85], the “Activity level (growth inhibition rate) Monochoria Vaginalis” value was 5 (Level 5: the growth inhibition rate is greater than 85%).

Regarding `CC(Oc1nc(F)c(Cl)c(N)c1Cl)C(=O)ON=Cc1cccc([N+](=O)[O-])c1` (stereo not drawn) [Compound 73], the “Activity level (growth inhibition rate) Monochoria Vaginalis” value is 5 (Level 5: the growth inhibition rate is greater than 85%).

Regarding `CC(Oc1nc(F)c(Cl)c(N)c1Cl)C(=O)ON=C(C(=O)NCCc1ccccc1)c1ccccc1` (stereo not drawn) [Compound 105], the “Activity level (growth inhibition rate) Monochoria Vaginalis” value is listed as 5 (Level 5: the growth inhibition rate is greater than 85%).

On to `CC(Oc1nc(F)c(Cl)c(N)c1Cl)C(=O)ON=C(c1ccccc1)c1ccc(C2CC2)cc1` (stereo not drawn) [Compound 80], for which the “Activity level (growth inhibition rate) Monochoria Vaginalis” value is 5 (Level 5: the growth inhibition rate is greater than 85%).

As for `CC(Oc1nc(F)c(Cl)c(N)c1Cl)C(=O)ON=C(C(=O)N(C)C)c1ccccc1` (stereo not drawn) [Compound 99], the “Activity level (growth inhibition rate) Monochoria Vaginalis” value was 5 (Level 5: the growth inhibition rate is greater than 85%).

In the case of `CSC(=NOC(=O)C(C)Oc1nc(F)c(Cl)c(N)c1Cl)c1ccc(SC)cc1` (stereo not drawn) [Compound 89], the “Activity level (growth inhibition rate) Monochoria Vaginalis” value is given as 5 (Level 5: the growth inhibition rate is greater than 85%).

Staying with this test, now noted: Murdannia triquetra, 3 weeks in greenhouse, fresh weight inhibition.
Turning to `CCc1cccc(C(Cl)=NOC(=O)C(C)Oc2nc(F)c(Cl)c(N)c2Cl)c1` (stereo not drawn) [Compound 85], the “Activity level (growth inhibition rate) Murdannia triquetra” value is recorded as 5 (Level 5: the growth inhibition rate is greater than 85%).

Turning to `CC(Oc1nc(F)c(Cl)c(N)c1Cl)C(=O)ON=Cc1cccc([N+](=O)[O-])c1` (stereo not drawn) [Compound 73], the “Activity level (growth inhibition rate) Murdannia triquetra” value was 5 (Level 5: the growth inhibition rate is greater than 85%).

Turning to `CC(Oc1nc(F)c(Cl)c(N)c1Cl)C(=O)ON=C(C(=O)NCCc1ccccc1)c1ccccc1` (stereo not drawn) [Compound 105], the “Activity level (growth inhibition rate) Murdannia triquetra” value was 5 (Level 5: the growth inhibition rate is greater than 85%).

Turning to `CC(Oc1nc(F)c(Cl)c(N)c1Cl)C(=O)ON=C(c1ccccc1)c1ccc(C2CC2)cc1` (stereo not drawn) [Compound 80], the “Activity level (growth inhibition rate) Murdannia triquetra” value is 5 (Level 5: the growth inhibition rate is greater than 85%).

For the molecule `CC(Oc1nc(F)c(Cl)c(N)c1Cl)C(=O)ON=C(C(=O)N(C)C)c1ccccc1` (stereo not drawn) [Compound 99], the “Activity level (growth inhibition rate) Murdannia triquetra” value is 5 (Level 5: the growth inhibition rate is greater than 85%).

For the molecule `CSC(=NOC(=O)C(C)Oc1nc(F)c(Cl)c(N)c1Cl)c1ccc(SC)cc1` (stereo not drawn) [Compound 89], the “Activity level (growth inhibition rate) Murdannia triquetra” value was 5 (Level 5: the growth inhibition rate is greater than 85%).

The test is the same for the next values; noted with them: Setaria viridis, 3 weeks in greenhouse, fresh weight inhibition.
Consider `CCc1cccc(C(Cl)=NOC(=O)C(C)Oc2nc(F)c(Cl)c(N)c2Cl)c1` (stereo not drawn) [Compound 85], for which the “Activity level (growth inhibition rate) Setaria viridis” value is listed as 5 (Level 5: the growth inhibition rate is greater than 85%).

Consider `CC(Oc1nc(F)c(Cl)c(N)c1Cl)C(=O)ON=Cc1cccc([N+](=O)[O-])c1` (stereo not drawn) [Compound 73], for which the “Activity level (growth inhibition rate) Setaria viridis” value is listed as 5 (Level 5: the growth inhibition rate is greater than 85%).

As to `CC(Oc1nc(F)c(Cl)c(N)c1Cl)C(=O)ON=C(C(=O)NCCc1ccccc1)c1ccccc1` (stereo not drawn) [Compound 105], the “Activity level (growth inhibition rate) Setaria viridis” value is listed as 5 (Level 5: the growth inhibition rate is greater than 85%).

On to `CC(Oc1nc(F)c(Cl)c(N)c1Cl)C(=O)ON=C(c1ccccc1)c1ccc(C2CC2)cc1` (stereo not drawn) [Compound 80], for which the “Activity level (growth inhibition rate) Setaria viridis” value is 5 (Level 5: the growth inhibition rate is greater than 85%).

For `CC(Oc1nc(F)c(Cl)c(N)c1Cl)C(=O)ON=C(C(=O)N(C)C)c1ccccc1` (stereo not drawn) [Compound 99], the “Activity level (growth inhibition rate) Setaria viridis” value is 5 (Level 5: the growth inhibition rate is greater than 85%).

As to `CSC(=NOC(=O)C(C)Oc1nc(F)c(Cl)c(N)c1Cl)c1ccc(SC)cc1` (stereo not drawn) [Compound 89], the “Activity level (growth inhibition rate) Setaria viridis” value is 5 (Level 5: the growth inhibition rate is greater than 85%).
